Measured values: US20120108668A1, “METABOLIC PROFILES” (priority 2009, published 2012)

Key:
AIA DA rats = experiment: Treatment of RA in an AIA rat model with an experimental substance; serum metabolite profile by GC/TOFMS and OPLS-DA; format: in vivo, Dark Agouti (DA) rats; settings: treated vs untreated; for regulation of endogenous metabolite levels in treated animals (OPLS-DA loadings): FIG. 7B
Description: Treatment of RA in an AIA Rat Model with an Experimental Substance (Arginine)
AIA was induced in three Dark Agouti (DA) rats and the rats were then given treatment with an experimental substance.
The rat model samples used consist of the following blood samples: • 3 samples from AIA DA rats • 4 samples (one of the rats was sampled twice) from AIA DA rats treated with the experimental substance. Extraction of Metabolites from Serum
(§1) Extraction of metabolites from serum samples was essentially performed as the method described by A et al. (2005). 630 μl of MeOH:H2O (9:1 V:V) including internal standards was added to 70 μl of serum. The solution was vortex mixed for 10 s, kept on ice for 10 min, and then vigorously extracted at a frequency of 30 Hz for 3 min using a MM301 vibration Mill (Retsch GmbH & Co. KG, Haan, Germany. After […] on ice, the samples were centrifuged at 19 600 g for 10 min at 4° C. 200 μl of the supernatant was transferred to a GC vial, and 50 μl was transferred to a LC/MS vial and evaporated to dryness.
Prior GC/MS analysis the samples were derivatised with 30 μL of methoxyamine hydrochloride (15 mg mL-1) in pyridine by shaking for 10 min at 5° C., then incubating them for 16 h at room temperature. The samples were then trimethylsilylated by adding 30 μL of […] (MSTFA) with 1% TMCS and incubating them for 1 h at room temperature. After silylation, 30 μL of heptane (containing 0.5 μg methyl stearate as internal standard) was added. 0.1 μl of derivatized sample was injected split less by an Agilent 7683 Series Autosampler (Agilent, Atlanta; GA, USA) into an Agilent 6980 GC equipped with a 10 m×0.18 mm ID, fused silica capillary column chemically bonded with 0.18 μm DB5-MS stationary phase (J&W Scientific, Folsom, Calif., USA). The injector temperature was set at 270° C. Helium was used as carrier gas at a constant flow rate of 1 ml/min through the column. For every analysis, the purge time was set to 60 s at a purge flow rate of 20 ml min-1 and an equilibration time of 1 min. […]

AIA Lewis rats = experiment: Treatment study of the active compound in AIA Lewis rats; serum metabolite profile by GC/TOFMS and OPLS; format: in vivo; settings: 1 mg, 3 mg or 10 mg active compound
Description: This example illustrates the potency of the active compound and its therapeutically active acid addition salts for treatment of […].
AIA was induced in a total of 21 Lewis rats were included in the treatment study. Samples used consist of the following blood samples: • 22 samples from AIA Lewis rats (one of the rats was sampled twice) • 26 samples from treated AIA Lewis rats (five of the rats was sampled twice)
Different treatments were distributed in the AIA subjects as follows: • 5 subjects received 1 mg active compound • 5 subjects received 3 mg active compound • 6 subjects received 10 mg active compound • 5 subjects received 1 mg methotrexate Extraction of Metabolites from Serum
as §1
GC/TOFMS analysis and the Data processing of MS-data was carried out as in Example 1 above.

melting point	Compound	separation of untreated and treated AIA animals in the OPLS-DA scores scatter plot (patterns of endogenous metabolites) (AIA DA rats; FIG. 7A)	regulation of endogenous metabolite levels in treated animals (OPLS-DA loadings) (AIA DA rats)	regulation of endogenous metabolite levels in treated animals (OPLS-DA loadings) (AIA DA rats; listed as administered substance)	levels of the metabolites associated with AD, effect of treatment (AIA Lewis rats)
	N=C(N)NCCC[C@H](N)C(=O)O [experimental substance, Arginine]	well separated	Almost all metabolites are up regulated	up regulation of many of the metabolites	
198 to 200 °C	COc1ccc(C=NNC(=N)N)c(Cl)c1OC [active compound, N-(2-chloro-3,4-dimethoxybenzylideneamino)guanidine]				significantly affected
